Experiment [1] can be described thus: 13C NMR-based bicarbonate release assay in liposomes. The protocol:
In some embodiments, a small molecule or a complex can permeabilize the apical membrane of differentiated human lung epithelia to bicarbonate. A series of natural and synthetic small molecules reported previously to permeabilize liposomes, cells, and/or nasal epithelia of mice to anions were tested for the capacity to increase short circuit current across CuFi-1 epithelial monolayers using an Ussing chamber. […] The capacity for AmB to transport bicarbonate was tested using an adapted ^13C NMR-based assay in cholesterol-containing POPC liposomes.

Experiment [2] concerns CuFi-4 (ΔF508/G551D) epithelia. Description: ASL pH in CuFi-4 epithelia. It counts as cell-based, human. The protocol: Airway surface liquid (ASL) pH assay. ASL pH was studied using an established fluorescent dye assay using the Dextran, SNARF®-1, 70,000 MW ratiometric dye (Thermo Fisher D3304). Mature, differentiated CuFi-1 (ATCC CRL-4013) epithelial monolayers were grown on Corning Costar 0.4 μm Transwell Clear Polyester Membrane cell culture inserts (Corning 3470). CuFi epithelia were treated with perfluorinated hydrocarbon (PFC) vehicle, AmB, AmB:Chol or Chol and incubated for the time course of the experiment at 37° C. On the day of imaging, 100 μL of a suspension of SNARF-dextran in PFC was added to the apical side of the monolayers. Monolayers were imaged 2 hours after dye addition. The monolayers were placed on 100 μL of Ultroser G media on a 10 mm glass bottom Fluorodish for imaging (World Precision Instruments). Five images per membrane were taken on a Zeiss LSM 880 confocal microscope at 40× water immersion. These images were analyzed using ImageJ to determine the green to red ratio of each image. Solutions of known pH were used to calibrate pH detection using this system.
Ivacaftor is a clinically approved and effective drug to treat cystic fibrosis, and it was used as a control in some of the experiments. […]

For `C[C@@H]1[C@H](O)[C@@H](C)/C=C/C=C/C=C/C=C/C=C/C=C/C=C/[C@H](O[C@@H]2O[C@H](C)[C@@H](O)[C@H](N)[C@@H]2O)C[C@@H]2O[C@](O)(C[C@@H](O)C[C@@H](O)[C@H](O)CC[C@@H](O)C[C@@H](O)CC(=O)O[C@H]1C)C[C@H](O)[C@H]2C(=O)O` [AmB, amphotericin B], in experiment [1], the “release of 13C-labelled bicarbonate from liposomes” value was “Robust and rapid release”. Further, in experiment [2], the “effect on ASL pH” value is on record as “increase ASL pH”.

The values are drawn from US11850256B2, “Small molecule-mediated restoration of airway surface physiology in human cystic fibrosis lung epithelia” (The Board of Trustees of the University of Illinois, priority 2016, dated 2023).
